US6627732B1, “Glutathione derivatives and their dosage forms” (Teijin Limited, priority 1998, dated 2003)
Each block holds one molecule with its values, some of them ahead of it.

Experiments:
[1] = Dialysis of fat emulsion in aqueous glycerin, content of glutathione derivative retained (Example 23); assay type: physicochemical; conditions: 2 mg/ml fat emulsion, dialysis 2 days at room temperature in 2.3 (w/v)% glycerin, 1.2 μm filter; uncorrected for volume increase
Procedure: The glutathione derivative combined with a fat emulsion was dialyzed in an aqueous solution of glycerin to compare changes in the content of the glutathione derivative in the fat emulsion.
Thereupon, the concentration of the glutathione derivative in the fat emulsion was adjusted to 2 mg/ml.
(2) These fat emulsions (14 ml) were dialyzed in 1 liter of a 2.3 (w/v)% aqueous solution of glycerin. Dialysis was carried out at room temperature for 2 days with one change of the aqueous glycerin solution during the dialysis. All the fat emulsions after dialysis were about 15.6 ml. They were filtered by a 1.2 μm filter and the content of the glutathione derivative was measured.

[2] = Plasma concentration after intravenous administration to mice (Example 24); assay type: in vivo, mouse; conditions: iv tail vein 50 mg/kg, HPCD solution, 5 min, individual mice, quantitation limit about 1 μg/ml
Procedure: The blood levels of the glutathione derivatives of Example 4 and Comparative Example 1 were compared in mice that are a species having a high esterase activity in the blood.
(1) Male 8-week old BDF1 mice were purchased from Nippon SLC and used for the experiment. Until 9-week old when they were subjected to the experiment, the animals were kept at a temperature of 24±2° C. and a humidity of 55±5% under the condition under which the animals had free access to the animal feed (MF, Oriental Yeast Co., Ltd.) and drinking water (well water treated with 0.4±0.2 ppm hypochlorous acid).
After a fixed time, about 1 ml of blood was drawn from the heart of the animal under ethereal anesthesia (after drawing blood once, each mouse is sacrificed). The N number for each sample group at each time point was 2. After drawing, the blood was immediately cooled on ice and was centrifuged in the presence of sodium citrate to collect plasma. The plasma thus obtained was deproteinized with acetonitrile and then was analyzed by a C18 reverse phase high performance liquid chromatography using an aqueous solution of trifluoroacetic acid/acetonitrile system as the mobile phase to determine the concentration of glutathione derivative for each plasma.

HL-60 cells = test: HL-60 cell differentiation induction, NBT reducing activity, DMSO as solvent (Example 21); assay type: cell-based, human
Excerpt: In a manner similar to that in Example 20, the in vitro activity of the glutathione derivatives of Examples 4, 5, and 8, and Comparative Example 3 were compared.
(1) The differences from Example 20 were: First, since the glutathione derivatives of Examples and Comparative Examples used dimethyl sulfoxide (DMSO) as the solvent because of the solubility of the compounds, the system contained 0.1-0.3 (v/v)% DMSO instead of ethanol. […] This caused slight differences in the sensitivity in the test results of the glutathione derivative of Example 4. Furthermore, in Example 21, the differentiation induction on HL-60 cells into granulocytic cells in the coexistence of 9-cis-RA was only evaluated.

[3] = tested on: rat models of suppressed hematopoietic function by 5-FU administration; test: Ratio of segmented neutrophils in rat models of suppressed hematopoietic function by 5-FU (Example 27); assay type: in vivo; conditions: 5-FU rats; 30 mg/kg-body weight/day with fat emulsion
Procedure: (1) The animals used are the same as in Example 26. The keeping condition was a temperature of 23±2° C. and a humidity of 55±15%.
(2) The creation of the 5-FU administration model, the administration of test substances, and the blood collection schedule were carried out in a similar manner to Example 26. Hematological tests were carried out using the Toa multi-channel automatic cell counter K-4500 or Toa Sysmex CC-180A automatic cell counter, differential counts of white blood cells were carried out by May-Giemsa stain followed by microscopic examination, reticulocytes were counted by the Brecher method.
(3) Using the same schedule as in Example 26, the negative control group that only received the fat emulsion after 5-FU administration, the group that received the glutathione derivative of Example 4 at 30 mg/kg-body weight/day as a test substance together with the fat emulsion, the group that similarly received the glutathione derivative of Example 1 at 10 or 30 mg/kg-body weight/day, and the group that received the glutathione derivative of Example 7 at 30 or 60 mg/kg-body weight/day were studied.

TNFα = test: Plasma level of TNFα in normal healthy rats (ELISA); assay type: in vivo, rat; conditions: fat emulsion 20 mg/kg-body weight/day, days 3, 5 and 7
Excerpt: , plasma obtained form the EDTA-2K-treated blood on days 3, 5, and 7 of the experiment was used to determine plasma levels of interleukin 1β (hereinafter referred to as IL-1β) and tumor necrosis factor (hereinafter referred to as TNFα). For the determination, the rat IL-1β-ELISA system (manufactured by Amersham Pharmacia Biotek Co., Ltd.), the rat TNFα-ELISA system (manufactured by Amersham Pharmacia Biotek Co., Ltd.), and the BioRad microplate reader (MODEL550, Nippon BioRad laboratories, Co., Ltd.).

- Content of the glutathione derivative in the fat emulsion after dialysis, of the initial feed [1]: 14.0%
- Plasma concentration [2]: ≤ 1000 ng/mL
Structure (SMILES): CCOC(=O)[C@@H](N)CCC(=O)N[C@@H](CSCc1ccccc1)C(=O)N[C@@H](C(=O)OCC)c1ccccc1.Cl [Comparative Example 1, Glu(Cys(Bzl)-D-Phg-O(Et))-O(Et)hydrochloride, reference compound]

Structure (SMILES): CCCCCCCCCCCCCCCCOC(=O)[C@@H](N)CCC(=O)N[C@@H](CSCc1ccccc1)C(=O)N[C@@H](C(=O)OCC)c1ccccc1.Cl [Example 4, Glu(Cys(Bzl)-D-Phg-OEt)-O(Hexadecyl)hydrochloride]
- Differentiation induction activity compared with Comparative Example 3 (HL-60 cells; HL-60, coexistence of 9-cis-RA): activity higher than that of Comparative Example 3
- Ratio of NBT reduction activity-positive cells (HL-60 cells; compound 3 × 10^−6 M in DMSO, Solvent control (EtOH - 0.1%)): 0.6%
- Ratio of NBT reduction activity-positive cells (HL-60 cells; compound 3 × 10^−6 M in DMSO, with 9-cis-RA (5 × 10^−9 M)): 29.9%
- Ratio of NBT reduction activity-positive cells (HL-60 cells; compound 3 × 10^−7 M in DMSO, Solvent control (EtOH - 0.1%)): 0.9%
- Ratio of NBT reduction activity-positive cells (HL-60 cells; compound 3 × 10^−7 M in DMSO, with 9-cis-RA (5 × 10^−9 M)): 11.0%
- Ratio of NBT reduction activity-positive cells (HL-60 cells; compound 3 × 10^−8 M in DMSO, Solvent control (EtOH - 0.1%)): 0.7%
- Ratio of NBT reduction activity-positive cells (HL-60 cells; compound 3 × 10^−8 M in DMSO, with 9-cis-RA (5 × 10^−9 M)): 3.1%
- Ratio of NBT reduction activity-positive cells (HL-60 cells; compound 10^−6 M in DMSO, Solvent control (EtOH - 0.1%)): 0.3%
- Ratio of NBT reduction activity-positive cells (HL-60 cells; compound 10^−6 M in DMSO, with 9-cis-RA (5 × 10^−9 M)): 21.2%
- Ratio of NBT reduction activity-positive cells (HL-60 cells; compound 10^−7 M in DMSO, Solvent control (EtOH - 0.1%)): 0.7%
- Ratio of NBT reduction activity-positive cells (HL-60 cells; compound 10^−7 M in DMSO, with 9-cis-RA (5 × 10^−9 M)): 5.6%
- Ratio of NBT reduction activity-positive cells (HL-60 cells; compound 10^−8 M in DMSO, Solvent control (EtOH - 0.1%)): 0.6%
- Ratio of NBT reduction activity-positive cells (HL-60 cells; compound 10^−8 M in DMSO, with 9-cis-RA (5 × 10^−9 M)): 2.5%
- Recovery of segmented neutrophil counts relative to the negative control [3]: tendency of promoting the recovery of segmented neutrophil counts
- Plasma level of TNFα relative to the negative control group (TNFα): No increases
